Structures are written as SMILES.

In general, KD refers to the concentration at which binding is half-saturated.

Assay [1] has as its system HEV1 (electrode form) (DNA, aptamer) AGCAGCTTATTGCTGAATTTTT
As to the kind of experiment: differential pulse voltammetry aptasensor. The note with it: peak current falls with log E2, from 5 pg/mL; immobilised aptamer.

Assay [2] relates to HEV2 (MST form) (DNA, aptamer) AGCAGATGAATCTGAATTTTT
As to the kind of experiment: microscale thermophoresis. The note with it: NaCl 300 mM, MgCl2 5 mM (aptamer buffer); 20 mM Tris pH 7.6, 0.01% Tween 20; highest E2 1000 nM. For orientation: In MST a laser heats a spot of the sample, and binding alters the fluorescence response.

Assay [3] deals with M70 (electrode form) (DNA, aptamer) GCTTCCAGCTTATTGAATTACACGCAGAGGGTAGCGGCTCTGCGCATTCAATTGCTGCGCGCTGAAGCGCGGAAGC
As to the kind of experiment: differential pulse voltammetry aptasensor. The note with it: peak current falls with log E2, 5 pg/mL to 20 ng/mL; immobilised aptamer.

Assay [4] has as its system HEV1 (MST form) (DNA, aptamer) AGCAGCTTATTGCTGAATTTTT
The assay is described as follows: microscale thermophoresis. The note with it: NaCl 300 mM, MgCl2 5 mM (aptamer buffer); 20 mM Tris pH 7.6, 0.01% Tween 20; E2 up to 1000 nM; 30 min incubation; abstract 92 nM.

Assay [5] relates to M70 (colorimetric form) (DNA, aptamer) GCTTCCAGCTTATTGAATTACACGCAGAGGGTAGCGGCTCTGCGCATTCAATTGCTGCGCGCTGAAGCGCGGAAGC
The assay is described as follows: AuNP aggregation colorimetry. The note with it: NaCl; A660/A520 ratio rises with E2; room temperature.

Assay [6] has as its system HEV1 (colorimetric form) (DNA, aptamer) AGCAGCTTATTGCTGAATTTTT
As to the kind of experiment: AuNP aggregation colorimetry. The note with it: NaCl; A660/A520 ratio rises with E2, 0.2 to 1 μg/mL; room temperature.

As for `C[C@]12CC[C@@H]3c4ccc(O)cc4CC[C@H]3[C@@H]1CC[C@@H]2O`, the binding entry in assay [1] is “yes”; in assay [2] it was “no”; in assay [3], “yes”; in assay [5], “yes”; in assay [6] it was “yes”. Moreover, the KD in assay [4] amounted to 92.76 ± 66.02 nM.

These data come from PMC10819485 (2024).
